# According to patent US12358954B2, “Capsid-modified rAAV vector compositions and methods therefor” (priority 2012, dated 2025):
# Entries after “also recorded” stand apart in the source; their conditions may differ.
# How the values were obtained:
# [1] = system: K562 cells; assay: AAV6 transduction of K562 cells after enzyme / inhibitor treatment; format: cell-based, human
# Text: More recently, Denard et al. reported that galectin-3-binding protein in human sera agglutinates AAV6 vectors, which results in decreased transduction efficiency of these vectors. […] The identity of the putative receptor for AAV6 vectors in human CD34^+ cells remains elusive, and additional studies are warranted. […] The implication is that AAV6 uses a protein rather than a lipid on K562 cells for binding and entry into these cells. In addition, because AAV6 is known to have evolved from recombination between AAV1 and AAV2, and because AAV2 uses heparan sulfateproteoglycan (HSPG) as the primary cellular receptor, the level of HSPG expression on K562 cells surface was examined by FACS. […] The effect of inhibitors of O-linked and N-linked glycosylation was also evaluated on the transduction efficiency of AAV6 vectors in K562 cells.
# [2] = system: T47D+hHGFR cells; assay: AAV vector transduction of T47D+hHGFR cells; format: cell-based, human
# Text: (§1) Cell Lines and Cultures. Human cervical cancer (HeLa) and hepatocellular carcinoma (Huh7) cell lines were purchased from American Type Culture Collection (Manassas, Va., USA), and maintained in complete DMEM medium (Mediatech, Inc., Manassas, Va., USA) supplemented with 10% heat-inactivated fetal bovine serum (FBS, Sigma-Aldrich Co.), 1% penicillin and streptomycin (P/S, Lonza, Inc.). A newly established human hepatoblastoma (Hep293TT) cell line (Chen et al., 2009) was maintained in complete RPMI medium 1640 (Invitrogen, Inc.) supplemented with 15% heat-inactivated FBS (Sigma-Aldrich Co.), 1% penicillin and streptomycin (P/S, Lonza, Inc.). Cells were grown as adherent cultures in a humidified atmosphere at 37° C. in 5% CO2 and were sub-cultured after treatment with trypsin-versene mixture (Lonza, Inc.) for 2-5 min at room temperature, washed and re-suspended in complete medium. […]
# (§2) Human HGFR is required for AAV3 infectivity. […] Equivalent numbers of T47D and T47D+hHGFR cells were transduced with various multiplicities-of-infection (MOI) of self-complementary (sc) AAV3-CBAp-EGFP vectors under identical conditions and transgene expression was determined 72 hr post-transduction.
# [3] = system: T47D cells; assay: AAV3 vector transduction of T47D cells; format: cell-based, human; settings: 1 μM, 2 hr; 10,000 vg/cell
# Text: as §1, §2
# [4] = molecular target: T1, HGFR kinase (Homo sapiens, UniProt P08581); assay: Western blot of HGFR phosphorylation and downstream signaling; format: cell-based; settings: T47D+hHGFR cells
# T1 construct: expressed in transfected cells; host or cells: T47D human breast cancer cells stably transfected with a hHGFR expression plasmid (T47D+hHGFR); parental T47D as control
# Protocol: Cells were harvested and disrupted in a radio-immunoprecipitation assay (RIPA) lysis buffer (50 mM Tris-HCl, pH 8.0, 150 mM NaCl, 0.1% SDS, 1% NP-40, 0.25% sodium deoxycholate and 1 mM EDTA with protease inhibitor cocktail, 1 mM NaF and 1 mM Na3VO4). Total protein concentration was measured using a Bradford reagent (Bio-Rad) and equal amounts (50 μg) of whole cell lysates were resolved by SDS-PAGE. After electrophoresis, samples were electro-transferred to a nitrocellulose membrane (Bio-Rad), probed with relevant primary antibodies at 4° C. overnight, incubated with horseradish peroxidase-conjugated secondary antibodies (Jackson ImmunoResearch, West Grove, Pa., USA), and detected with an enhanced chemi-luminescence substrate (Amersham). […]
# To examine whether inhibition of the HGFR kinase led to alterations in the phosphorylation status of specific cellular proteins involved in the downstream signaling pathway total and phosphorylation levels of the HGFR protein in both T47D and T47D+hHGFR lysates were determined following a 2-hr drug-incubation period. Activation of signaling pathways downstream from HGFR kinase, ERK1/2 and Akt, were analyzed using phosphorylation-specific antibodies.
# [5] = system: primary human dendritic cells; assay: FACS analyses of markers of maturation (CD83, CD86) of primary human dendritic cells; format: cell-based
# Protocol: Cells, Antibodies and Chemicals. HeLa cells were obtained from the American Type Culture Collection (Rockville, Md., USA) and maintained as monolayer cultures in Iscove's-modified Dulbecco's medium (IMDM, Invitrogen, Inc., Carlsbad, Calif., USA) supplemented with 10% newborn calf serum (NCS) (Lonza, Inc., Basel, SWITZERLAND) and antibiotics. Leukapheresis-derived PBMCs were resuspended in serum-free AIM-V medium (Lonza, Inc.) and semi-adherent cell fractions were incubated in serum-free AIM-V medium supplemented with recombinant human IL-4 (500 U/mL) and GM-CSF (800 U/mL) (R&D Systems, MN, USA). Cells were treated with NF-κB modulators ([…]), and cytokines cocktail including 10 ng/mL TNF-α, 10 ng/mL IL-1, 10 ng/mL IL-6, […] (R&D Systems) for 20 hr. Cells were harvested, characterized to ensure they met the typical phenotype of mature DCs (CD83, RPE, murine IgG1, CD86, FITC, murine IgG1; Invitrogen, Inc.). All primary and secondary antibodies were purchased from Cell Signaling Technology, Inc. (Danvers, Mass., USA) or Santa Cruz Biotechnology, Inc (Santa Cruz, Calif., USA). NF-kB activators [Etoposide (VP16), Aphidicolin, Hydroxyurea (HU)] and NF-kB inhibitors [Bay11-7082 (Bay11), Pyrrolidine dithiocarbamate (PDTC)] were purchased from Sigma-Aldrich Co. (St. Louis, Mo., USA). These compounds were re-suspended in either DMSO (Sigma-Aldrich Co.) or in sterile, DNAase-, RNAase-free water (Invitrogen, Inc.) as per the manufacturer's instructions.
# [6] = system: primary human dendritic cells; assay: AAV-EGFP transduction of primary human dendritic cells with NF-κB modulators (flow cytometry); format: cell-based
# Protocol: (§3) Recombinant AAV Vector Transduction Assays in Vitro. Optimal concentration of NF-κB-modulating compounds was determined by a cell viability assay with tenfold-dilutions from the IC50 or were used as described previously (Wu and Miyamoto, 2008; Kumar et al., 2008). VP16 or Bay11 (10 or 5 μM, final concentration), and PDTC (50 or 25 μM final concentration) were used either alone or in activator/inhibitor combinations. For transduction experiments, approximately 1×10^5 HeLa cells were either pre-treated with these compounds 24 hrs prior to vector infection. Cells were transduced with 500 or 2,000 vector genomes (vgs) per cell of recombinant WT-AAV or TM-AAV vectors encoding the EGFP transgene as described previously (Markusic et al., 2010). After 7 days of culture, primary human dendritic cells were transduced with AAV vectors at 2000 vgs/cell and incubated for 48 hrs. Transgene expression was assessed as total area of green fluorescence (pixel^2) per visual field (mean±SD), or by flow cytometry. Analysis of variance (ANOVA) was used to compare between test results and the control and they were determined to be statistically significant.
# Cells, Antibodies and Chemicals. […]
# [7] = system: non-canonical NF-κB pathway (p100, p52); assay: Western blot of NF-κB pathway components in HeLa cells; format: cell-based, human; settings: in the presence of VP16
# Text: Western Blot Analyses. Homogenized lysates of the cell pellets from ˜2×10^6 HeLa cells or DCs, mock or pre-treated with the optimal concentration of NF-κB activators or inhibitors were used for sample preparation. Whole cell proteins were isolated using the RIPA lysis buffer (Sigma-Aldrich Co.) and cytoplasmic and nuclear proteins were extracted using a commercial kit (NE-PER Extraction Reagent Kit, Pierce Biotech, Rockford, Ill., USA) as per the manufacturer's protocol in the presence of a protease inhibitor cocktail (Halt™ Protease Inhibitor Cocktail Kit, Pierce Biotech). The protein extracts were boiled for 5 min under reducing conditions [SDS-sample buffer containing 62.5 mM Tris-HCl (pH 6.8 at 25° C.), 2% wt./vol. SDS, 10% glycerol, 50 mM DTT, 0.01% wt./vol. bromo-phenol blue (Cell Signaling Technology, Inc.)] and stored at −86° C. until further analysis. Equal volumes of samples were run on 4-15% SDS-PAGE (Bio-Rad, Hercules, Calif., USA). […] The intensity of the protein bands was measured with Adobe Photoshop CS3 Software® and normalized to proteins levels from the housekeeping gene products used as loading controls.
# [8] = system: HeLa cells; assay: AAV-EGFP transduction of HeLa cells in the presence of NF-κB modulators; format: cell-based, human; settings: HeLa, scAAV-EGFP
# Protocol: as §3
# [9] = system: Hep293TT cells; assay: AAV3 vector transduction assay in Hep293TT cells; format: cell-based, human
# Protocol: (§4) AAV Vector Transduction Assays. Huh7 or HeLa cells were seeded in 96-well plates at a concentration of 5,000 cells per well in complete DMEM medium. AAV infections were performed in serum- and antibiotic-free DMEM medium. Hep293TT cells were seeded in 96-well plates at a concentration of 10,000 cells per well in complete RPMI medium. The infections were performed in serum- and antibiotic-free RPMI medium. The expression of EGFP was analyzed by direct fluorescence imaging 72 hrs' post-transduction.
# [10] = system: HeLa cells; assay: Recombinant AAV2 vector transduction assay in vitro (EGFP imaging); format: cell-based, human
# Protocol: Recombinant AAV2 Vector Transduction Assays in Vitro. Approximately 1×10^5 HeLa cells were used for transductions with recombinant AAV2 vectors. The transduction efficiency was measured 48-hr post-transduction by EGFP imaging using fluorescence microscopy. Images from three to five visual fields were analyzed quantitatively by ImageJ analysis software (NIH, Bethesda, Md., USA). Transgene expression was assessed as total area of green fluorescence (pixel^2) per visual field (mean±SD). Analysis of variance (ANOVA) was used to compare between test results and the control and they were determined to be statistically significant.
# The transduction efficiency of each of the tyrosine-mutant vectors was analyzed and compared with the WT scAAV2-EGFP vector in HeLa cells in vitro under identical conditions. […] Specifically, the transduction efficiency of Y444F, Y500F, Y730F vectors was ˜8- to 11-fold higher than the WT vector.
# In a second study, HeLa cells, either mock-treated or treated with Tyr23, a specific inhibitor of EGFR-PTK, or MG132, a proteasome inhibitor, both known to increase the transduction efficiency of AAV vectors, were mock-infected or infected with the WT or Y730F scAAV2-EGFP vectors.
# [11] = system: HeLa cells; assay: scAAV2 transduction of HeLa cells with MG132 or Tyr23 (positive control); format: cell-based, human; settings: MG132 5 μM; Tyr23 200 μM
# Protocol: as §4
# Proteasome Inhibitors Increase the Transduction Efficiency of AAV3 Vectors. […] To evaluate whether MG132 can also improve AAV3 trafficking in target cells, Huh7, a well-established human hepatocellular carcinoma cell line (Nakabayashi et al., 1982), and Hep293TT, a recently established human hepatoblastoma cell line (Chen et al., 2009), were either mock-treated or treated with increasing concentrations of MG132. […] Transgene expression was determined by fluorescence microscopy 72 hrs post-transduction.
# Previous studies have also shown that inhibition of EGFR-PTK signaling by Tyrphostin 23 (Tyr23), a specific inhibitor of EGFR-PTK (May et al., 1998), modulates the Ub/proteasome pathway, which in turn, facilitates intracellular trafficking and transgene expression mediated by AAV2 vectors (Zhong et al., 2007). […] Transgene expression was determined 72 hr post-transduction.
# [12] = Mature DCs + AAV + Cytokines + modulator
# T1 sequence (P08581 25-1390): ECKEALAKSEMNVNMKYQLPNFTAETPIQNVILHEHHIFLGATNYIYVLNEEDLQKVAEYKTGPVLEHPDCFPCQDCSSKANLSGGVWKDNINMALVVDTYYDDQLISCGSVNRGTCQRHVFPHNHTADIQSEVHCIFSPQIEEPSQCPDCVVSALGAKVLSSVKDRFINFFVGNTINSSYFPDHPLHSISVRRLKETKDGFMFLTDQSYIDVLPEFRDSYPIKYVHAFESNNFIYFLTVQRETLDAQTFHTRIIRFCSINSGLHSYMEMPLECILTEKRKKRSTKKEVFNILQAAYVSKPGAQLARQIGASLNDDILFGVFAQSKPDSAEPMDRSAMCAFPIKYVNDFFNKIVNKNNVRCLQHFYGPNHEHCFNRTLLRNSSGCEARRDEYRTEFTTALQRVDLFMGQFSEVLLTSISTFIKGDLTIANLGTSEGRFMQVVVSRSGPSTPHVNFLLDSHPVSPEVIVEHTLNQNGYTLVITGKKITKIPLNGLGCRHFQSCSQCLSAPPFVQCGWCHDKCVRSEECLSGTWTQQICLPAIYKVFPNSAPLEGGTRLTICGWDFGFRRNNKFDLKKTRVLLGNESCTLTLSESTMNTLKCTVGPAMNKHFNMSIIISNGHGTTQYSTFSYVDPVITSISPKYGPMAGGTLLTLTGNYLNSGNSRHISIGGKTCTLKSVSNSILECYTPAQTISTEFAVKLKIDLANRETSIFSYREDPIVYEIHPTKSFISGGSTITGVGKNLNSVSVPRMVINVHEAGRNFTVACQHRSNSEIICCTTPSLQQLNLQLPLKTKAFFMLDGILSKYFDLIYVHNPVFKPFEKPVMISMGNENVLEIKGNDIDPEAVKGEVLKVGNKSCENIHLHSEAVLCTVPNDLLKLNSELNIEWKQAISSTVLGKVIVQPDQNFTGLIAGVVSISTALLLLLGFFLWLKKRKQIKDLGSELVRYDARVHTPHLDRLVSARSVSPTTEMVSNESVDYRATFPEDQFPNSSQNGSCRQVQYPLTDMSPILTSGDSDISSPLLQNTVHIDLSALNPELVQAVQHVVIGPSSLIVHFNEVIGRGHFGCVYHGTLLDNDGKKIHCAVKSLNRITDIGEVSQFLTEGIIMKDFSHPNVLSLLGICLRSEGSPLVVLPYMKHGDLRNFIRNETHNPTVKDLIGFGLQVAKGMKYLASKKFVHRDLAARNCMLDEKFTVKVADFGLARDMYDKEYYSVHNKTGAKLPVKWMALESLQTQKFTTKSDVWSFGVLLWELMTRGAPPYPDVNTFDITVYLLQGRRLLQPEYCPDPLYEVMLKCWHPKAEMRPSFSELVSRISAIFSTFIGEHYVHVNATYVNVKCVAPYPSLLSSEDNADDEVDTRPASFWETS
molecule,measurement,setting,value
heparin,effect on AAV6 vector-mediated transduction of K562 cells,[1],could not be inhibited
hHGF: human hepatocyte growth factor,AAV3 vector-mediated transduction in the presence of hHGF,"[2]; 5 μg/mL hHGF, 2,000 vgs/cell",completely blocked
"CCOc1ccn(-c2ccc(F)cc2)c(=O)c1C(=O)Nc1ccc(Oc2ccnc(N)c2Cl)c(F)c1 [BMS-777607, N-(4-(2-amino-3-chloropyridin-4-yloxy)-3-fluorophenyl)-4-ethoxy-1-(4-fluorophenyl)-2-oxo-1,2-dihydropyridine-3-carboxamide]",AAV3 infectivity,[3],no effect
same,AAV3 infectivity,"[2]; 1 μM, 2 hr, 10,000 vg/cell",significantly enhanced
same,expression of phosphorylated AKT and ERK1/2,[4],no effect
same,phosphorylation of HGFR,[4]; 2-hr incubation,completely blocked
phospholipase A2,effect on AAV6 vector-mediated transduction of K562 cells,[1],no significant change
"COc1cc([C@@H]2c3cc4c(cc3[C@@H](O[C@@H]3O[C@@H]5CO[C@@H](C)O[C@H]5[C@H](O)[C@H]3O)[C@H]3COC(=O)[C@H]23)OCO4)cc(OC)c1O [VP16, Etoposide]","maturation of DCs (CD83, CD86)",[5],not able to induce maturation
same,Geometric means of levels of expression in cells expressing CD83,[5]; DCs without cytokines,16.48
same,Geometric means of levels of expression in cells expressing CD86,[5]; DCs without cytokines,13.70
same,Geometric means of levels of expression in cells expressing CD83,[5]; [12],19.92
same,Geometric means of levels of expression in cells expressing CD86,[5]; [12],21.92
same,EGFP expression increase compared with scAAV vector-transduced DCs,[6],~20 fold
same,increase in cytosolic p100 and nuclear p52,[7],3- to 6 fold
"S=C(S)N1CCCC1 [PDTC, Pyrrolidine dithiocarbamate]","AAV vector-mediated EGFP expression, fold augmentation",[8],had no effect; also recorded: no noticeable effect
"N#CC(C#N)=Cc1ccc(O)c(O)c1 [Tyr23, Tyrphostin 23]",amounts of internalized viral DNA in presence or absence of inhibitor,[9],no significant difference
same,transduction efficiency of scAAV3 vectors after treatment,[9]; 2 hr treatment,significant increase
same,increase in transduction efficiency of WT scAAV2-EGFP by pretreatment,[10],~9 fold
same,transduction efficiency of scAAV2 vectors after pretreatment,[11],significant increase
tunicamycin,effect on AAV6 vector-mediated transduction of K562 cells,[1],markedly reduced
